The term Km denotes the substrate concentration at which the rate is half of its maximum.

This experiment has as its target SaPgsA (Staphylococcus aureus, UniProt P63756). Briefly: […]-G3P incorporation into chloroform-soluble PGP, scintillation counting. The settings on record: 1.6 mM [14C]-G3P, 100 mM MgCl2, 20 mM Triton X-100, 100 mM Tris-HCl pH 8.0, 27 C, 50 nM enzyme; detergent micelle (bulk concentration). Type of experiment: biochemical.

Take CDP-DAG: the Km is 400 µM.

Values taken from publication PMC8640168 (Current Research in Structural Biology, 2021).
